Experimental data from ChEMBL document CHEMBL3046528, “Pharmacophore-based 3D-QSAR study of fungal chitin synthase inhibitors” (Med Chem Res, 2013).

Each compound was assayed against T1, Chitin synthase 3 (Saccharomyces cerevisiae S288c, UniProt P29465) (assay: Inhibition of Saccharomyces cerevisiae chitin synthase).
T1 sequence (P29465 whole entry): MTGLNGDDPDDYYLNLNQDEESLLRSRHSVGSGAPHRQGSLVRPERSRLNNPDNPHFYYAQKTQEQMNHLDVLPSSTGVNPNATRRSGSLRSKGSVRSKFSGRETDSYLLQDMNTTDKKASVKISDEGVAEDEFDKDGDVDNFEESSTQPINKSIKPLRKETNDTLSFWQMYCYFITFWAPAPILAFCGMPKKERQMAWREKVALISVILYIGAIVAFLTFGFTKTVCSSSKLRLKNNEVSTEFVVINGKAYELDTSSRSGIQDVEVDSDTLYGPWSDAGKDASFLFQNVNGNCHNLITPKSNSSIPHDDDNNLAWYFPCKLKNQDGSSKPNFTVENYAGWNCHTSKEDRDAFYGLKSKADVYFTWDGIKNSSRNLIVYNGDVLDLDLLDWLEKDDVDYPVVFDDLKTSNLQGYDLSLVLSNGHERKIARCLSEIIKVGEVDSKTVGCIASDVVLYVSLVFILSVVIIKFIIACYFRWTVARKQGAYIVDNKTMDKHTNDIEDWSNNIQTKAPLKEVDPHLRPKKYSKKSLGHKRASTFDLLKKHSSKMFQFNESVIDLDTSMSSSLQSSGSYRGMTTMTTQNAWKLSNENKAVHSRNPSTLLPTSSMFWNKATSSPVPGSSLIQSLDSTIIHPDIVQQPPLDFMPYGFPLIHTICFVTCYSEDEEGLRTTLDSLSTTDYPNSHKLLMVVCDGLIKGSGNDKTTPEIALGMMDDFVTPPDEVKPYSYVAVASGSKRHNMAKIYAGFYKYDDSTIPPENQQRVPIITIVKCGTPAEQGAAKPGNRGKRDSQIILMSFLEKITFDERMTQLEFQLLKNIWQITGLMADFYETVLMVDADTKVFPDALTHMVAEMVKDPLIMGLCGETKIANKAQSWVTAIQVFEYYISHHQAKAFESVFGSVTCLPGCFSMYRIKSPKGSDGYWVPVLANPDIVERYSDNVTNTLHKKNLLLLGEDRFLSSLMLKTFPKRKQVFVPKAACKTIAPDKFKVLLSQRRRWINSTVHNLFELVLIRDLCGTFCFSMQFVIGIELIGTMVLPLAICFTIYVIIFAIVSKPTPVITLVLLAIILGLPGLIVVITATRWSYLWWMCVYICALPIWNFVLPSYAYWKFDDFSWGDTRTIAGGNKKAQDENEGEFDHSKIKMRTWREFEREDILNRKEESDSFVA

Row | Structure (SMILES) | IC50
1 | O=C(/C=C/c1ccc2ccccc2c1)c1ccccc1 | 94.2 µM
2 | COc1ccc(/C=C/C(=O)c2ccccc2)c(OC)c1 | 372 µM
3 | O=C(/C=C/c1ccco1)c1ccc(Cl)cc1Cl | 824 µM
4 | COc1cccc(/C=C/C(=O)c2ccccc2)c1OC | 298 µM
5 | COc1ccc(/C=C/C(=O)c2ccccc2)cc1OC | 372 µM

These compounds were tested against Chitin synthase (Candida albicans, UniProt P30572+P23316+P30573) (assay: Inhibition of Candida albicans chitin synthase).
Assay type: protein assay

Row | Structure (SMILES) | pIC50
6 | CC(C)[C@H](N)C(=O)OC1Cc2c(cccc2N(C)CC#CC#CC(C)(C)C)NC1=O (some centres not stated) | 4.422
7 | CCCCN(C/C=C/C#CC(C)(C)C)c1cccc2c1CCC(=O)N2 | 5.985
8 | CN(CC#CC#CC(C)(C)O)c1cccc2c1CCC(=O)N2 | 3.143
9 | CC(C)(C)C#C/C=C/CN(Cc1ccccc1)c1cccc2c1CCC(=O)N2 | 3.839
10 | CN(CC#CC#CC(C)(C)C)c1cccc2c1CC(O)C(=O)N2 (configuration not stated) | 5.015
11 | CCOP(=O)(OCC)OC1Cc2c(cccc2N(C)CC#CC#CC(C)(C)C)NC1=O (configuration not stated) | 5.769
12 | CN(CC#CC#CC(C)(C)C)c1cccc2c1CC(N)C(=O)N2 (configuration not stated) | 4.401
13 | CC(C)(C)C#C/C=C/CNc1cccc2c1CCC(=O)N2 | 3.6
14 | CCC#CC#CCN(C)c1cccc2c1CCC(=O)N2 | 4.529
15 | CC(C)N(C/C=C/C#CC(C)(C)C)c1cccc2c1CCC(=O)N2 | 5.421
16 | CN(C/C=C/C#CC(C)(C)C)c1cccc2c1CCC(=O)N2 | 5.029
17 | CN(CCCC#CC(C)(C)C)c1cccc2c1CCC(=O)N2 | 4.523
18 | CCCCCN(C/C=C/C#CC(C)(C)C)c1cccc2c1CCC(=O)N2 | 5.506
19 | CN(CC#CC#CC(C)(C)C)c1cccc2c1CCC(=O)N2 | 6.323
20 | CCCN(C/C=C/C#CC(C)(C)C)c1cccc2c1CCC(=O)N2 | 5.679
21 | CCN(C/C=C/C#CC(C)(C)C)c1cccc2c1CCC(=O)N2 | 5.538
22 | CN(Cc1ccc(C#CC(C)(C)C)cc1)c1cccc2c1CCC(=O)N2 | 4.681
